ChEMBL document CHEMBL3885861, “Open TG-GATES”

Species on record: Rattus norvegicus
Test: Open TG-GATES - Regimen: Single
Assay type: toxicity, organism-based, Sprague-Dawley
Design: regimen Single, gender Male, age 6 weeks
Details: in vivo, po, 100 mg/kg, route gavage, dose level Low; for APTT / Bas / Eos / Fbg / Hb / Ht / Lym / MCH / MCHC / MCV / Mono / Neu / PT / Plat / RBC / Ret / WBC: tissue Blood; for KIDNEY_L / KIDNEY_R / KIDNEY_TOTAL: tissue Kidney; for LIVER: tissue Liver; for A/G / ALP / ALT / AST / BUN / CRE / Ca / Cl / DBIL / GLC / IP / K / LDH / Na / PL / RALB / TBIL / TC / TG / TP / gamma-GTP: tissue Plasma

Compound `CCCCNC(=O)NS(=O)(=O)c1ccc(C)cc1` [TOLBUTAMIDE] has a TERMINAL_BW (3 h) of 205.3 g, an APTT (3 h) of 21 s and a Bas (3 h) of 0%. It also gave an Eos (3 h) of 1%, a Fbg (3 h) of 274.2 mg/dL and a Hb (3 h) of 13.4 g/dL. For the same compound, the Ht (3 h) was 41.4%, the Lym (3 h) was 73% and the MCH (3 h) was 20.9 pg. The MCHC (3 h) was 32.3%, the MCV (3 h) was 64.7 fL and the Mono (3 h) was 3.4%. It also gave a Neu (3 h) of 21.8%, a PT (3 h) of 13.2 s and a Plat (3 h) of 122.1 x10_4/uL. The RBC (3 h) was 641 x10_4/ul, the Ret (3 h) was 8.8% and the WBC (3 h) was 90.7 x10_2/uL. For the same compound, the KIDNEY_L (3 h) was 1 g, the KIDNEY_R (3 h) was 1 g and the KIDNEY_TOTAL (3 h) was 2 g. The LIVER (3 h) was 9.2 g, the A/G (3 h) was 0.9 and the ALP (3 h) was 1360.8 IU/L. The ALT (3 h) was 49 IU/L, the AST (3 h) was 92 IU/L and the BUN (3 h) was 10.8 mg/dL. It also gave a CRE (3 h) of 0.2 mg/dL, a Ca (3 h) of 10.8 mg/dL and a Cl (3 h) of 106.2 meq/L. The DBIL (3 h) was 0.004 mg/dL, the GLC (3 h) was 156.2 mg/dL and the IP (3 h) was 8.5 mg/dL. It also gave a K (3 h) of 4 meq/L, an LDH (3 h) of 63.6 IU/L and a Na (3 h) of 141.4 meq/L. It also gave a PL (3 h) of 129 mg/dL, an RALB (3 h) of 2.5 g/dL and a TBIL (3 h) of 0.058 mg/dL. It also gave a TC (3 h) of 73.4 mg/dL, a TG (3 h) of 48 mg/dL and a TP (3 h) of 5.3 g/dL. The gamma-GTP (3 h) was 1.2 IU/L, the TERMINAL_BW (6 h) was 204.4 g and the APTT (6 h) was 16.5 s. It also gave a Bas (6 h) of 0%, an Eos (6 h) of 1% and a Fbg (6 h) of 278.2 mg/dL. The Hb (6 h) was 13.5 g/dL, the Ht (6 h) was 41.6% and the Lym (6 h) was 75%. For the same compound, the MCH (6 h) was 20.9 pg, the MCHC (6 h) was 32.3% and the MCV (6 h) was 64.8 fL. For the same compound, the Mono (6 h) was 2.2%, the Neu (6 h) was 20.4% and the PT (6 h) was 13.2 s. The Plat (6 h) was 124.3 x10_4/uL, the RBC (6 h) was 642.6 x10_4/ul and the Ret (6 h) was 9.1%. It also gave a WBC (6 h) of 98.3 x10_2/uL, a KIDNEY_L (6 h) of 0.9 g and a KIDNEY_R (6 h) of 0.9 g. It also gave a KIDNEY_TOTAL (6 h) of 1.8 g, an LIVER (6 h) of 8.8 g and an A/G (6 h) of 0.9. The ALP (6 h) was 1403.8 IU/L, the ALT (6 h) was 40.4 IU/L and the AST (6 h) was 71.8 IU/L. The BUN (6 h) was 10.4 mg/dL, the CRE (6 h) was 0.2 mg/dL and the Ca (6 h) was 10.9 mg/dL. For the same compound, the Cl (6 h) was 106.8 meq/L, the DBIL (6 h) was 0.006 mg/dL and the GLC (6 h) was 137.4 mg/dL. For the same compound, the IP (6 h) was 9.8 mg/dL, the K (6 h) was 3.9 meq/L and the LDH (6 h) was 50.2 IU/L. The Na (6 h) was 141.8 meq/L, the PL (6 h) was 134 mg/dL and the RALB (6 h) was 2.5 g/dL. The TBIL (6 h) was 0.06 mg/dL, the TC (6 h) was 72.4 mg/dL and the TG (6 h) was 64.2 mg/dL. For the same compound, the TP (6 h) was 5.2 g/dL, the gamma-GTP (6 h) was 1.2 IU/L and the TERMINAL_BW (9 h) was 201.2 g. The APTT (9 h) was 16.5 s, the Bas (9 h) was 0% and the Eos (9 h) was 1.2%. It also gave a Fbg (9 h) of 288.4 mg/dL, a Hb (9 h) of 13.6 g/dL and a Ht (9 h) of 41.6%. It also gave a Lym (9 h) of 72.6%, an MCH (9 h) of 20.9 pg and an MCHC (9 h) of 32.7%. The MCV (9 h) was 63.9 fL, the Mono (9 h) was 1.6% and the Neu (9 h) was 24%. The PT (9 h) was 13.5 s, the Plat (9 h) was 122.2 x10_4/uL and the RBC (9 h) was 650.4 x10_4/ul. For the same compound, the Ret (9 h) was 8.3%, the WBC (9 h) was 89.4 x10_2/uL and the KIDNEY_L (9 h) was 0.9 g. The KIDNEY_R (9 h) was 0.9 g, the KIDNEY_TOTAL (9 h) was 1.8 g and the LIVER (9 h) was 7.9 g. For the same compound, the A/G (9 h) was 0.9, the ALP (9 h) was 1515.4 IU/L and the ALT (9 h) was 39.2 IU/L. It also gave an AST (9 h) of 80.4 IU/L, a BUN (9 h) of 10 mg/dL and a CRE (9 h) of 0.2 mg/dL. The Ca (9 h) was 10.7 mg/dL, the Cl (9 h) was 107.4 meq/L and the DBIL (9 h) was 0.002 mg/dL. For the same compound, the GLC (9 h) was 158.2 mg/dL, the IP (9 h) was 9.7 mg/dL and the K (9 h) was 4.1 meq/L. It also gave an LDH (9 h) of 66.6 IU/L, a Na (9 h) of 142.4 meq/L and a PL (9 h) of 122.8 mg/dL. The RALB (9 h) was 2.5 g/dL, the TBIL (9 h) was 0.064 mg/dL and the TC (9 h) was 69.4 mg/dL. For the same compound, the TG (9 h) was 34.6 mg/dL, the TP (9 h) was 5.2 g/dL and the gamma-GTP (9 h) was 1 IU/L. For the same compound, the TERMINAL_BW (24 h) was 220.2 g, the APTT (24 h) was 17.7 s and the Bas (24 h) was 0.2%. The Eos (24 h) was 1%, the Fbg (24 h) was 273.6 mg/dL and the Hb (24 h) was 13.3 g/dL. It also gave a Ht (24 h) of 41%, a Lym (24 h) of 80.4% and an MCH (24 h) of 20.8 pg. The MCHC (24 h) was 32.5%, the MCV (24 h) was 64.1 fL and the Mono (24 h) was 2.4%. The Neu (24 h) was 15.4%, the PT (24 h) was 12.9 s and the Plat (24 h) was 129 x10_4/uL. For the same compound, the RBC (24 h) was 640.4 x10_4/ul, the Ret (24 h) was 7.7% and the WBC (24 h) was 82.4 x10_2/uL. For the same compound, the KIDNEY_L (24 h) was 1 g, the KIDNEY_R (24 h) was 1 g and the KIDNEY_TOTAL (24 h) was 2 g. It also gave an LIVER (24 h) of 10.2 g, an A/G (24 h) of 0.9 and an ALP (24 h) of 1457.6 IU/L. For the same compound, the ALT (24 h) was 46.4 IU/L, the AST (24 h) was 73 IU/L and the BUN (24 h) was 14.6 mg/dL. The CRE (24 h) was 0.2 mg/dL, the Ca (24 h) was 11.2 mg/dL and the Cl (24 h) was 104.4 meq/L. For the same compound, the DBIL (24 h) was 0.008 mg/dL, the GLC (24 h) was 174.6 mg/dL and the IP (24 h) was 8.7 mg/dL. The K (24 h) was 4.2 meq/L, the LDH (24 h) was 69 IU/L and the Na (24 h) was 142 meq/L. It also gave a PL (24 h) of 148.2 mg/dL, an RALB (24 h) of 2.5 g/dL and a TBIL (24 h) of 0.066 mg/dL. The TC (24 h) was 80.6 mg/dL, the TG (24 h) was 70.8 mg/dL and the TP (24 h) was 5.3 g/dL. For the same compound, the gamma-GTP (24 h) was 1.2 IU/L.
